Measurements: BigSolDB 2.1

CCCCCCCCCCCCCCCCCC
Conditions | solubility (mole fraction)
in cyclohexane, 281.45 K | 0.214
in cyclohexane, 284.35 K | 0.265
in cyclohexane, 287.2 K | 0.35
in cyclohexane, 290.95 K | 0.445
in cyclohexane, 294.8 K | 0.576
in cyclohexane, 297.05 K | 0.704
in ethanol, 283.05 K | 0.0018
in ethanol, 285.75 K | 0.0025
in ethanol, 287.7 K | 0.0032
in ethanol, 289.25 K | 0.0038
in ethanol, 291 K | 0.0047
in ethanol, 292.6 K | 0.0058
in ethanol, 294.35 K | 0.0072
in ethanol, 296.2 K | 0.0093
in ethanol, 297.95 K | 0.0122
in ethanol, 299.45 K | 0.0162
in n-heptane, 276.9 K | 0.124
in n-heptane, 279 K | 0.151
in n-heptane, 281.4 K | 0.183
in n-heptane, 283.7 K | 0.225
in n-heptane, 287.6 K | 0.314
in n-heptane, 290.15 K | 0.393
in n-heptane, 291.9 K | 0.458
in n-heptane, 293.65 K | 0.524
in n-heptane, 296.4 K | 0.647
in n-heptane, 297.65 K | 0.733

CCCCCCCCCCCCCCCCCCC
Conditions | solubility (mole fraction)
in cyclohexane, 282.25 K | 0.201
in cyclohexane, 283.95 K | 0.233
in cyclohexane, 286.65 K | 0.29
in cyclohexane, 289.65 K | 0.359
in cyclohexane, 292.8 K | 0.458
in cyclohexane, 295.65 K | 0.553
in cyclohexane, 297 K | 0.6
in cyclohexane, 301.75 K | 0.75
in ethanol, 282.7 K | 0.0011
in ethanol, 284.8 K | 0.0014
in ethanol, 286 K | 0.0016
in ethanol, 287.4 K | 0.0019
in ethanol, 288.7 K | 0.0022
in ethanol, 289.95 K | 0.0025
in ethanol, 290.95 K | 0.003
in ethanol, 292.45 K | 0.0035
in ethanol, 293.75 K | 0.0041
in ethanol, 295.6 K | 0.0051
in ethanol, 297.25 K | 0.0062
in ethanol, 300.85 K | 0.0083
in ethanol, 303.85 K | 0.0115
in n-heptane, 278.25 K | 0.129
in n-heptane, 279.5 K | 0.145
in n-heptane, 280.95 K | 0.164
in n-heptane, 282.45 K | 0.19
in n-heptane, 284.25 K | 0.22
in n-heptane, 286.55 K | 0.256
in n-heptane, 288.7 K | 0.314
in n-heptane, 290.95 K | 0.393
in n-heptane, 293.7 K | 0.478
in n-heptane, 296.95 K | 0.611
in n-heptane, 302.3 K | 0.786
